Experimental data: PMC11601558, “SLC6A19 inhibition facilitates urinary neutral amino acid excretion and lowers plasma phenylalanine” (JCI Insight, 2024)
Values joined by “and” are separate entries in the source; they are usually repeats but may differ in a detail not shown here. Identical values can stand only once. Like-named read-outs stand apart in the source and are kept apart here.

Legend:
Assay type in all cases: in vivo, mouse
[1] = JN-170 plasma pharmacokinetics in Pah^enu2 mice, single oral dose; set-up: JN-170 plasma level (Fig 3a) / JN-170 plasma concentration: unit not given here; conditions: for JN-170 plasma level (Fig 3a) / concentration at 8 h / concentration at 1 h / concentration at 3 h: individual Pah^enu2 mice; for JN-170 plasma concentration: Fig S3a, Pahenu2 mice, individual animals; for concentration at 8 h / concentration at 1 h / concentration at 3 h: male, BTBR-Pah<enu2>/J (Pah^enu2), mouse, plasma, oral, read-out: JN-170 plasma level (Fig 3a)
Procedure: (§1) Male homozygous BTBR-Pah<enu2>/J (Pah^enu2) aged 10–13 weeks were purchased from Jackson Laboratory (no. 002232). Immediately before dosing, each animal’s bladder was manually emptied and a plasma sample was drawn. Animals were dosed by oral gavage with vehicle (10% DMSO, 20% 2-hydroxypropyl-β-cyclodextrin [Sigma-Aldrich]) followed by a 1-week washout prior to dosing with JN-170 at doses ranging from 50 to 250 mg/kg. Following dosing with vehicle or JN-170, animals were individually placed in metabolic cages to collect urine samples. After collection of each urine sample, cages were rinsed with ultra-pure water to recover residual analytes. Blood samples were collected predose as well as 1, 3, 8, 12, and 24 hours after dosing with vehicle or JN-170 into tubes with EDTA as a […], and plasma was separated by centrifuging samples at 2,200g for 5 minutes at 4°C. Throughout the study, mice had access to food and water ad libitum. Plasma and urine samples were stored at –80°C until processing.Ten-week-old male WT C57Bl/6J animals (Si Bei Fu Laboratory Animal Technology Co. Ltd.) were dosed either with vehicle or 50–250 mg/kg JN-170 by oral gavage and blood and urine samples were collected as described. All animals had unrestricted access to food and water during the study; C57Bl/6J were kept on rodent maintenance diet from Beijing Keao Xieli, Pah^enu2 mice were kept on Teklad diet no. T.2018.
(§2) Plasma sample analyses were carried out by liquid chromatography tandem mass spectrometry (LC-MS/MS). Plasma samples were mixed 1:1 with carbamazepine or ^13C6-Phe as internal standards for JN-170 and Phe, respectively. Plasma proteins were precipitated by adding 4 volumes of acetonitrile (ACN) and 0.1% formic acid (FA) followed by centrifugation for 5 minutes at 2,100g. Supernatants were diluted 1:1 in ACN and 0.1% FA. For JN-170, a Waters HSS T3 reversed phase column was used for separation using a binary gradient of 0.1% FA in water (mobile phase A) to 0.1% in ACN (mobile phase B). At a flow rate of 0.8 mL/min, the mobile phase gradient increased from an initial 25% phase B to 95% phase B over 30 seconds. After, 1.5 minutes, the gradient was returned to 25% mobile phase B. For detection of Phe, an Acquity UPLC ethylene bridged hybrid (BEH) amide column was used, with a binary gradient of 10 mM ammonium acetate in 95:5:1 H2O:ACN:FA (mobile phase A) to 10 mM ammonium acetate in 95:5:1 ACN:H2O:FA (mobile phase B). At a flow rate of 0.5 mL/min, the mobile phase gradient changed from an initial 100% phase B to 50% phase B over 2.1 minutes. It was returned to 100% phase B after 4 minutes. Analytes were detected using a Sciex API-5500 in multiple reaction monitoring mode using an electrospray ionization source in the positive ion mode with the following ion transitions: m/z 435.2/84.1 (JN-170), 237.1/194.1 (carbamazepine), 166.1/120.1 (Phe), 172.2/126.2 for (^13C6-Phe). Analyte concentrations were calculated with a 1/×^2 linear regression over a concentration range of 1 or 2 to 5,000 ng/mL for JN-170 and 0.05–100 ng/mL for Phe.

[2] = JN-170 plasma pharmacokinetics in C57Bl/6J mice, single oral dose; set-up: JN-170 plasma level (Fig 2a): unit not given here
Procedure: as §1, §2

Pah^enu2 mice = assay: Plasma Phe in Pah^enu2 mice after JN-170
Procedure: as §1, §2
IC50 values for transport inhibition in cells overexpressing SLC6A19 and TMEM27 were calculated using a 4-parameter logistic regression in Collaborative Drug Discovery (CDD). Reported IC50 values are geometric means of 4–6 independent experiments. For postmortem intestinal transport assays, single outliers of quadruplicate replicates were excluded from the calculation if a signal value’s distance to the mean exceeded 35% of the signal average. The IC50 values of individual experiments were calculated with a 3- or 4-parameter logistic regression using GraphPad Prism 9. The reported IC50 value represents the geometric mean of n = 5 experiments from 3 individual donors. Statistical comparison of urinary Phe excretion in Pah^enu2 mice treated with vehicle or JN-170 was conducted using 1-way analysis of variance (ANOVA) with Tukey’s post hoc comparison. […]

N#Cc1ccc(-c2noc([C@]3(C(F)(F)F)CCN(C(=O)NCCC4(N)CC4)C3)n2)cc1 [JN-170]
coverage above the in vitro IC75 ([1]; 50 mg/kg): approximately 3 hours
JN-170 plasma level (Fig 3a) ([1]; 50 mg/kg oral, 24 h): 8.45 and 26.4 and 9.59 and 19.9
JN-170 plasma level (Fig 3a) ([1]; 250 mg/kg oral, 1 h): 16600 (2×) and 17000 and 16300 and 17600
JN-170 plasma level (Fig 3a) ([1]; 250 mg/kg oral, 24 h): 125 and 63 and 72.6
JN-170 plasma concentration ([1]; time 1 h): 10400 and 12200 and 13800 and 8750 and 11500 and 12500
JN-170 plasma concentration ([1]; time 3 h): 8500 and 9610 and 10900 and 8710 and 9900 and 11900
JN-170 plasma concentration ([1]; time 8 h): 11000 and 6710 and 8280 and 8610 and 8480 and 9150
JN-170 plasma concentration ([1]; time 12 h): 7430 and 5630 and 5750 and 12700 and 9060 and 6600
JN-170 plasma concentration ([1]; time 24 h): 33.1 and 16 and 26.9 and 82.7 and 103 and 19.9
concentration at 8 h ([1]; 50 mg/kg, 50 mg/kg oral): 456 ng/mL
concentration at 1 h ([1]; 100 mg/kg, 100 mg/kg oral, 1 h): 5780 ng/mL
concentration at 3 h ([1]; 100 mg/kg, 100 mg/kg oral): 4240 ng/mL
concentration at 8 h ([1]; 100 mg/kg, 100 mg/kg oral): 2280 ng/mL
concentration at 1 h ([1]; 200 mg/kg, 200 mg/kg oral, 1 h): 8750 ng/mL
concentration at 3 h ([1]; 200 mg/kg, 200 mg/kg oral): 8710 ng/mL
concentration at 8 h ([1]; 200 mg/kg, 200 mg/kg oral): 8610 ng/mL
concentration at 1 h ([1]; 250 mg/kg, 250 mg/kg oral, 1 h): 18300 ng/mL
concentration at 3 h ([1]; 250 mg/kg, 250 mg/kg oral): 14800 ng/mL
concentration at 8 h ([1]; 250 mg/kg, 250 mg/kg oral): 11200 ng/mL
JN-170 plasma level (Fig 2a) ([2]; 50 mg/kg oral, 1 h, individual C57Bl/6 mice): 4800 and 3580 and 3220 and 2280 and 3950 and 3920
JN-170 plasma level (Fig 2a) ([2]; 50 mg/kg oral, 3 h, individual C57Bl/6 mice): 1290 and 798 and 1160 and 1370 and 1130 and 1480
JN-170 plasma level (Fig 2a) ([2]; 50 mg/kg oral, 8 h, individual C57Bl/6 mice): 54.1
JN-170 plasma level (Fig 2a) ([2]; 100 mg/kg oral, 1 h, individual C57Bl/6 mice): 5300 and 7590 and 9540 and 8120 and 9150 and 8490
JN-170 plasma level (Fig 2a) ([2]; 100 mg/kg oral, 3 h, individual C57Bl/6 mice): 3330 and 3500 and 3620 and 5290 and 4430 and 4000
JN-170 plasma level (Fig 2a) ([2]; 100 mg/kg oral, 8 h, individual C57Bl/6 mice): 1010 and 870 and 627
JN-170 plasma level (Fig 2a) ([2]; 200 mg/kg oral, 1 h, individual C57Bl/6 mice): 12900 and 18300 and 14800 and 17900 and 16400 and 14100
JN-170 plasma level (Fig 2a) ([2]; 200 mg/kg oral, 3 h, individual C57Bl/6 mice): 9760 and 9530 and 8870 and 8820 and 12800 and 12000
JN-170 plasma level (Fig 2a) ([2]; 200 mg/kg oral, 8 h, individual C57Bl/6 mice): 2260 and 1430 and 1410 and 2700 and 2480 and 4110
JN-170 plasma level (Fig 2a) ([2]; 250 mg/kg oral, 1 h, individual C57Bl/6 mice): 18600 and 13000 and 21300 and 27800 and 20500 and 19600
JN-170 plasma level (Fig 2a) ([2]; 250 mg/kg oral, 3 h, individual C57Bl/6 mice): 13400 and 8320 and 12600 and 16100 and 11000 and 13600
concentration at 8 h ([2]; male, C57Bl/6J, mouse, plasma, oral, 250 mg/kg, 250 mg/kg oral, 8 h, individual C57Bl/6 mice, read-out: JN-170 plasma level (Fig 2a)): 3650 ng/mL
concentration at 12 h ([2]; male, C57Bl/6J, mouse, plasma, oral, 250 mg/kg, 250 mg/kg oral, 12 h, individual C57Bl/6 mice, read-out: JN-170 plasma level (Fig 2a)): 1760 ng/mL
bioavailability ([2]; male, C57Bl/6J, mouse, plasma, po): ~5%
plasma Phe, mean ± SD (Pah^enu2 mice; 50 mg/kg, 3 hours): 984 ± 135 µM
plasma Phe lower than predose baseline (Pah^enu2 mice; 50 mg/kg, 3 hours after dosing): 45%
plasma Phe decrease from baseline (Pah^enu2 mice; 50 mg/kg, 12 hours): 34%
plasma Phe, mean ± SD (Pah^enu2 mice; 50 mg/kg, 12 hours): 1,119 ± 124 μM
plasma Phe, mean ± SD (Pah^enu2 mice; 250 mg/kg, 3 hours): 764 ± 43 µM
reduction in plasma Phe vs predose (Pah^enu2 mice; 250 mg/kg, 3 hours): 54%
plasma Phe, mean ± SD (Pah^enu2 mice; 250 mg/kg, 12 hours): 648 ± 106 µM
reduction in plasma Phe vs predose (Pah^enu2 mice; 250 mg/kg, 12 hours): 61%
lowering of plasma Phe (Pah^enu2 mice; plasma exposures with target coverage above the IC75): > 40%
